# Measurements published in publication PMC6631481, “De Novo Design and In Vitro Testing of Antimicrobial Peptides against Gram-Negative Bacteria” (Pharmaceuticals, 2019).
# Read-outs that look alike come from different tables or passages of the source. Non-standard residues stand in square brackets, D forms with d. Residues, ends and D or L forms follow the SMILES beside them. No end group written: not given here.
# Key:
# Type in all cases: cell-based
# [1] = test system: Escherichia coli ATCC 25922
# Experimental: The MICs of the designed cationic peptides against Escherichia coli ATCC 25,922 strains were determined by the broth microdilution method, as described by Hancock et al.. All MIC evaluations were performed using Luria Bertani (LB) medium. Briefly, a range of each peptide concentrations (100 µg/mL, 50 µg/mL, 25 µg/mL, 12.5 µg/mL, 6.25 µg/mL, 3.125 µg/mL) was prepared by serial dilution in NaCl-depleted LB medium and added to an equal volume (250 µl) of exponentially grown bacterial culture, so that final bacterial suspension contained 5 × 10^5 CFU/mL. The samples were incubated in 2 mL polypropylene microtubes at 37 °C overnight at 300 rpm. The MIC was defined as the concentration at which no microbial growth was detected spectrophotometrically, via readings of optical density (OD) at 600 nm (Biotek ELX800 microplate reader). Growth medium containing only bacterial cells was used as a negative control. Each MIC test was carried out in two replicates and repeated three times.
# [2] = test system: A. baumannii Josh 230; assay: microbe, parasite or virus in culture
# Text: (§1) The following strains were used: P. aeruginosa (ATCC 27,853 and resistant strains: J4228 (R: Meropenem), BB2013-100 (FQR)); A. baumannii (Josh 28 and resistant strain Josh 230 (OXA-48); E. cloacae (resistant strains: BB2012-181(R: Meropenem), BB2013-32 (FQR)); E. aerogenes (resistant strain St. L P63 (NDM-1), E. asburiae/cloacae (resistant strain St. L P23 (NDM-1), K. pneumonia (J3702 and resistant strains: BB2009-209 (KPC-2), Oschner KP-1), Escherichia coli (BW25113 (7636) and resistant strains: JW55034 (11430) (Tol neg), BB2013-30 (R:carbapenem), ARLG-1012 (NDM)). Susceptibility testing was performed using non-cation adjusted MHB broth and polypropylene plates. Testing was also done in the presence and absence of acetic acid and BSA.
# [3] = test system: A. baumannii Josh 28; assay: microbe, parasite or virus in culture
# Text: as §1
# [4] = test system: E. aerogenes St. L P63; assay: microbe, parasite or virus in culture
# Text: as §1
# [5] = test system: E. cloacae BB2012-181; assay: microbe, parasite or virus in culture
# Text: as §1
# [6] = test system: E. cloacae BB2013-32; assay: microbe, parasite or virus in culture
# Text: as §1
# [7] = test system: E. coli ARLG-1012; assay: microbe, parasite or virus in culture
# Text: as §1
# [8] = test system: E. coli BB2013-30; assay: microbe, parasite or virus in culture
# Text: as §1
# [9] = test system: E. coli BW25113 (7636); assay: microbe, parasite or virus in culture
# Text: as §1
# [10] = test system: E. coli JW55034 (11430); assay: microbe, parasite or virus in culture; conditions: phenotype Tol neg, non-cation adjusted MHB broth, polypropylene plates, meropenem by standard CLSI method
# Text: as §1
# [11] = test system: K. pneumoniae BB2009-209; assay: microbe, parasite or virus in culture
# Text: as §1
# [12] = test system: K. pneumoniae J3702; assay: microbe, parasite or virus in culture
# Text: as §1
# [13] = test system: K. pneumoniae Oschner KP-1; assay: microbe, parasite or virus in culture
# Text: as §1
# [14] = test system: P. aeruginosa ATCC 27853; assay: microbe, parasite or virus in culture
# Text: as §1
# [15] = test system: P. aeruginosa BB2013-100; assay: microbe, parasite or virus in culture
# Text: as §1
# [16] = test system: P. aeruginosa J4228; assay: microbe, parasite or virus in culture
# Text: as §1
# [17] = test system: E. asburiae/cloacae St. L P23; assay: organism not typed
# Text: as §1
molecule,measurement,setting,value
GWAKLITKAIKKI-NH2 [SP3],MIC At NaCl,[1],25 to 50 µg/mL
same,MIC Without NaCl,[1],12.5 to 25 µg/mL
same,MIC,[2]; Josh 230,16 µg/mL
same,MIC,[3]; Josh 28,4 µg/mL
same,MIC,[4]; St. L P63,16 µg/mL
same,MIC,[5]; BB2012-181,16 µg/mL
same,MIC,[6]; BB2013-32,16 µg/mL
same,MIC,[7]; ARLG-1012,4 µg/mL
same,MIC,[8]; BB2013-30,8 µg/mL
same,MIC,[9]; BW25113,4 µg/mL
same,MIC,[10],4 µg/mL
same,MIC,[11]; BB2009-209,>32 µg/mL
same,MIC,[12]; J3702,16 µg/mL
same,MIC,[13]; Oschner KP-1,>32 µg/mL
same,MIC,[14]; ATCC 27853,8 µg/mL
same,MIC,[15]; BB2013-100,32 µg/mL
same,MIC,[16]; J4228,16 µg/mL
same,MIC,[17],32 µg/mL
HFKIRKRFVKKLV-NH2 [SP13],MIC At NaCl,[1],>100 µg/mL
same,MIC Without NaCl,[1],6.25 to 12.5 µg/mL
AIKIRKLFKKLLR-NH2 [SP1],MIC At NaCl,[1],12.5 to 25 µg/mL
same,MIC Without NaCl,[1],3.125 to 6.25 µg/mL
same,MIC,[2]; Josh 230,16 µg/mL
same,MIC,[3]; Josh 28,4 µg/mL
same,MIC,[6]; BB2013-32,>32 µg/mL
same,MIC,[7]; ARLG-1012,8 µg/mL
same,MIC,[8]; BB2013-30,16 µg/mL
same,MIC,[9]; BW25113,8 µg/mL
same,MIC,[10],8 µg/mL
same,MIC,[11]; BB2009-209,>32 µg/mL
same,MIC,[12]; J3702,>32 µg/mL
same,MIC,[13]; Oschner KP-1,>32 µg/mL
same,MIC,[14]; ATCC 27853,4 µg/mL
same,MIC,[15]; BB2013-100,32 µg/mL
same,MIC,[16]; J4228,8 µg/mL
same,MIC,[17],>32 µg/mL
IRPAKLRWFKKIK-NH2 [SP5],MIC At NaCl,[1],>100 µg/mL
same,MIC Without NaCl,[1],12.5 to 25 µg/mL
"C[C@@H](O)[C@H]1C(=O)N2C(C(=O)O)=C(S[C@@H]3CN[C@H](C(=O)N(C)C)C3)[C@H](C)[C@H]12 [Meropenem, reference compound]",MIC,"[2]; Acinetobacter baumannii, JOSH230, A. baumannii Josh 230, phenotype OXA-48, non-cation adjusted MHB broth, polypropylene plates, meropenem by standard CLSI method, read-out: MIC",1 µg/mL
same,MIC,"[3]; Acinetobacter baumannii, JOSH28, A. baumannii Josh 28, phenotype Susceptible, non-cation adjusted MHB broth, polypropylene plates, meropenem by standard CLSI method, read-out: MIC",32 µg/mL
same,MIC,"[4]; Klebsiella aerogenes, ST.LP63, E. aerogenes St. L P63, phenotype NDM-1, non-cation adjusted MHB broth, polypropylene plates, meropenem by standard CLSI method, read-out: MIC",16 µg/mL
same,MIC,"[5]; Enterobacter cloacae, BB2012181, E. cloacae BB2012-181, phenotype R: Meropenem, non-cation adjusted MHB broth, polypropylene plates, meropenem by standard CLSI method, read-out: MIC",16 µg/mL
same,MIC,"[6]; Enterobacter cloacae, BB201332, E. cloacae BB2013-32, phenotype FQR, non-cation adjusted MHB broth, polypropylene plates, meropenem by standard CLSI method, read-out: MIC",0.5 µg/mL
same,MIC,"[7]; Escherichia coli, ARLG1012, E. coli ARLG-1012, phenotype NDM, non-cation adjusted MHB broth, polypropylene plates, meropenem by standard CLSI method, read-out: MIC",64 µg/mL
same,MIC,"[8]; Escherichia coli, BB201330, E. coli BB2013-30, phenotype R:carbapenem, non-cation adjusted MHB broth, polypropylene plates, meropenem by standard CLSI method, read-out: MIC",1 µg/mL
same,MIC,"[9]; Escherichia coli, E. coli BW25113 (7636), phenotype WT, Tol parent strain, non-cation adjusted MHB broth, polypropylene plates, meropenem by standard CLSI method, read-out: MIC",≤ 0.125 µg/mL
same,MIC,"[10]; Escherichia coli, read-out: MIC",≤ 0.125 µg/mL
same,MIC,"[11]; Klebsiella pneumoniae, BB2009209, K. pneumoniae BB2009-209, phenotype KPC-2, non-cation adjusted MHB broth, polypropylene plates, meropenem by standard CLSI method, read-out: MIC",32 µg/mL
same,MIC,"[12]; Klebsiella pneumoniae, K. pneumoniae J3702, phenotype Susceptible, non-cation adjusted MHB broth, polypropylene plates, meropenem by standard CLSI method, read-out: MIC",≤ 0.125 µg/mL
same,MIC,"[13]; Klebsiella pneumoniae, K. pneumoniae Oschner KP-1, phenotype KPC-3, non-cation adjusted MHB broth, polypropylene plates, meropenem by standard CLSI method, read-out: MIC",16 µg/mL
same,MIC,"[14]; Pseudomonas aeruginosa, ATCC27853, P. aeruginosa ATCC 27853, phenotype CLSI Control, non-cation adjusted MHB broth, polypropylene plates, meropenem by standard CLSI method, read-out: MIC",1 µg/mL
same,MIC,"[15]; Pseudomonas aeruginosa, BB2013100, P. aeruginosa BB2013-100, phenotype FQR, non-cation adjusted MHB broth, polypropylene plates, meropenem by standard CLSI method, read-out: MIC",1 µg/mL
same,MIC,"[16]; Pseudomonas aeruginosa, P. aeruginosa J4228, phenotype R: Meropenem, non-cation adjusted MHB broth, polypropylene plates, meropenem by standard CLSI method, read-out: MIC",> 64 µg/mL
same,MIC,"[17]; E. asburiae/cloacae St. L P23, phenotype NDM-1, non-cation adjusted MHB broth, polypropylene plates, meropenem by standard CLSI method, read-out: MIC",16 µg/mL
CC[C@@H](C)[C@@H](NC(=O)[C@@H](Cc1c[nH]c2ccccc12)NC(=O)[C@H](N)CCCNC(=N)N)C(=O)N[C@H](CCCNC(=N)N)C(=O)N[C@H](Cc1c[nH]c2ccccc12)C(=O)N[C@@H](C(=O)N[C@H](Cc1c[nH]c2ccccc12)C(=O)N[C@H](CCCNC(=N)N)C(=O)N[C@H](CCCCN)C(=O)N[C@H](CCCCN)C(=O)N[C@H](CC(C)C)C(=O)N[C@H](CCCNC(=N)N)C(N)=O)C(C)C [SP15D] (H-[dR][dW][dI][dR][dW][dV][dW][dR][dK][dK][dL][dR]-NH2),MIC At NaCl,[1],0.78 to 1.56 µg/mL
same,MIC Without NaCl,[1],0.39 to 0.78 µg/mL
GIKFFLKKLKKHI-NH2 [SP4],MIC At NaCl,[1],25 to 50 µg/mL
same,MIC Without NaCl,[1],6.25 to 12.5 µg/mL
same,MIC,[2]; Josh 230,4 µg/mL
same,MIC,[3]; Josh 28,2 µg/mL
same,MIC,[4]; St. L P63,16 µg/mL
same,MIC,[5]; BB2012-181,>32 µg/mL
same,MIC,[6]; BB2013-32,16 µg/mL
same,MIC,[7]; ARLG-1012,8 µg/mL
same,MIC,[8]; BB2013-30,16 µg/mL
same,MIC,[9]; BW25113,8 µg/mL
same,MIC,[10],8 µg/mL
same,MIC,[11]; BB2009-209,>32 µg/mL
same,MIC,[12]; J3702,32 µg/mL
same,MIC,[13]; Oschner KP-1,>32 µg/mL
same,MIC,[14]; ATCC 27853,8 µg/mL
same,MIC,[15]; BB2013-100,32 µg/mL
same,MIC,[16]; J4228,16 µg/mL
same,MIC,[17],>32 µg/mL
RWIRWVWRKKLR-NH2 [SP15],MIC At NaCl,[1],3.125 to 6.25 µg/mL
same,MIC Without NaCl,[1],0.78 to 1.56 µg/mL
IRRRIRLIVRRQI-NH2 [SP12],MIC At NaCl,[1],12.5 to 25 µg/mL
same,MIC Without NaCl,[1],1.56 to 3.125 µg/mL
AKVLKISRRAFRK-NH2 [SP10],MIC At NaCl,[1],>100 µg/mL
same,MIC Without NaCl,[1],25 to 50 µg/mL
KVWSRLRKIFSTR-NH2 [SP9],MIC At NaCl,[1],6.25 to 12.5 µg/mL
same,MIC Without NaCl,[1],3.125 to 6.25 µg/mL
IRRWRLHWFRRAI-NH2 [SP11],MIC At NaCl,[1],12.5 to 25 µg/mL
same,MIC Without NaCl,[1],3.125 to 6.25 µg/mL
NAMRGAKRVWRHI-NH2 [SP7],MIC At NaCl,[1],>100 µg/mL
same,MIC Without NaCl,[1],50 to 100 µg/mL
GIKIRKLFKKLLR-NH2 [SP2],MIC At NaCl,[1],6.25 to 12.5 µg/mL
same,MIC Without NaCl,[1],3.125 to 6.25 µg/mL
KFRKFGKQVWVRL-NH2 [SP8],MIC At NaCl,[1],12.5 to 25 µg/mL
same,MIC Without NaCl,[1],3.125 to 6.25 µg/mL
RLFIKKLKFITRR-NH2 [SP6],MIC At NaCl,[1],25 to 50 µg/mL
same,MIC Without NaCl,[1],3.125 to 6.25 µg/mL
RWIRWVWRKKLRI-NH2 [SP14],MIC At NaCl,[1],12.5 to 25 µg/mL
same,MIC Without NaCl,[1],3.125 to 6.25 µg/mL
CC[C@@H](C)[C@@H](NC(=O)[C@@H](C)N)C(=O)N[C@H](CCCCN)C(=O)N[C@@H](C(=O)N[C@H](CCCNC(=N)N)C(=O)N[C@H](CCCCN)C(=O)N[C@H](CC(C)C)C(=O)N[C@H](Cc1ccccc1)C(=O)N[C@H](CCCCN)C(=O)N[C@H](CCCCN)C(=O)N[C@H](CC(C)C)C(=O)N[C@H](CC(C)C)C(=O)N[C@H](CCCNC(=N)N)C(N)=O)[C@H](C)CC [SP1D] (H-[dA][dI][dK][dI][dR][dK][dL][dF][dK][dK][dL][dL][dR]-NH2),MIC At NaCl,[1],12.5 to 25 µg/mL
same,MIC Without NaCl,[1],3.125 to 6.25 µg/mL
